Data from ChEMBL document CHEMBL1201862, “PubChem BioAssay data set” (2004).
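How tested: cells in 96-well plates exposed to compound for 48 hours at five concentrations. GI50: concentration for 50% inhibition of growth.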 The source made the active and inactive calls. Cut-off read from the data, not from the text of the source: active = GI50 up to about 1.1 µM and inactive = higher.

Experiments:
Assay in all cases: NCI anticancer screen, dose series, 48 h
SF-268 = tested on: SF-268
RPMI-8226 = tested on: RPMI-8226
SN12C = tested on: SN12C
OVCAR-5 = tested on: OVCAR-5
SNB-75 = tested on: SNB-75
HOP-62 = tested on: HOP-62
IGROV-1 = tested on: IGROV-1
K562 = tested on: K562
M14 = tested on: M14
786-0 = tested on: 786-0
NCI-H226 = tested on: NCI-H226
NCI-H522 = tested on: NCI-H522
CCRF-CEM = tested on: CCRF-CEM
SF-539 = tested on: SF-539
OVCAR-4 = tested on: OVCAR-4
SK-MEL-2 = tested on: SK-MEL-2
NCI/ADR-RES = tested on: NCI/ADR-RES
SK-MEL-28 = tested on: SK-MEL-28
MDA-MB-435 = tested on: MDA-MB-435
HCT-15 = tested on: HCT-15
MDA-MB-231 = tested on: MDA-MB-231
U-251 = tested on: U-251
UACC-257 = tested on: UACC-257
PC-3 = tested on: PC-3
MCF7 = tested on: MCF7
Hs-578T = tested on: Hs-578T
HCC 2998 = tested on: HCC 2998
UO-31 = tested on: UO-31
HCT-116 = tested on: HCT-116
SK-OV-3 = tested on: SK-OV-3
Malme-3M = tested on: Malme-3M
UACC-62 = tested on: UACC-62
TK-10 = tested on: TK-10
T47D = tested on: T47D
LOX IMVI = tested on: LOX IMVI
OVCAR-3 = tested on: OVCAR-3
SNB-19 = tested on: SNB-19
COLO 205 = tested on: COLO 205
BT-549 = tested on: BT-549
SK-MEL-5 = tested on: SK-MEL-5
SR = tested on: SR
HL-60 = tested on: HL-60
MOLT-4 = tested on: MOLT-4
SF-295 = tested on: SF-295
HOP-92 = tested on: HOP-92
NCI-H23 = tested on: NCI-H23
DU-145 = tested on: DU-145
CAKI-1 = tested on: CAKI-1
OVCAR-8 = tested on: OVCAR-8
SW-620 = tested on: SW-620
MDA-N = tested on: MDA-N
EKVX = tested on: EKVX
RXF 393 = tested on: RXF 393
ACHN = tested on: ACHN
HT-29 = tested on: HT-29
KM12 = tested on: KM12
A549 = tested on: A549
A498 = tested on: A498
NCI-H460 = tested on: NCI-H460

SMILES: CCOC(=O)C(NCc1cccc(C(F)(F)F)c1)(NC(=O)c1ccccc1)C(F)(F)F (centres undefined)
- GI50 (SF-268): 47.9 µM (inactive)
- GI50 (RPMI-8226): 9.1 µM (inactive)
- GI50 (SN12C): 31.2 µM (inactive)
- GI50 (OVCAR-5): 71.1 µM (inactive)
- GI50 (SNB-75): 27.4 µM (inactive)
- GI50 (HOP-62): 37.9 µM (inactive)
- GI50 (IGROV-1): 23.7 µM (inactive)
- GI50 (K562): 26.7 µM (inactive)
- GI50 (M14): 27.8 µM (inactive)
- GI50 (786-0): 28.5 µM (inactive)
- GI50 (NCI-H226): 27.2 µM (inactive)
- GI50 (NCI-H522): 17.6 µM (inactive)
- GI50 (CCRF-CEM): > 100 µM (inactive)
- GI50 (SF-539): 24.2 µM (inactive)
- GI50 (OVCAR-4): 21.6 µM (inactive)
- GI50 (SK-MEL-2): 21.4 µM (inactive)
- GI50 (NCI/ADR-RES): 18.8 µM (inactive)
- GI50 (SK-MEL-28): 22.1 µM (inactive)
- GI50 (MDA-MB-435): 24.3 µM (inactive)
- GI50 (HCT-15): 23.1 µM
- GI50 (MDA-MB-231): 11.5 µM (inactive)
- GI50 (U-251): 34 µM (inactive)
- GI50 (UACC-257): 18 µM (inactive)
- GI50 (PC-3): 30.5 µM (inactive)
- GI50 (MCF7): 43.3 µM (inactive)
- GI50 (Hs-578T): 47.1 µM (inactive)
- GI50 (HCC 2998): 26.1 µM (inactive)
- GI50 (UO-31): 18.1 µM (inactive)
- GI50 (HCT-116): 28.5 µM (inactive)
- GI50 (SK-OV-3): 78.3 µM (inactive)
- GI50 (Malme-3M): 21.7 µM (inactive)
- GI50 (UACC-62): 13.9 µM (inactive)
- GI50 (TK-10): 30.1 µM (inactive)
- GI50 (T47D): 22.2 µM (inactive)
- GI50 (LOX IMVI): 19.9 µM (inactive)
- GI50 (OVCAR-3): 22.8 µM (inactive)
- GI50 (SNB-19): 71.9 µM (inactive)
- GI50 (COLO 205): 16.4 µM (inactive)
- GI50 (BT-549): 20.5 µM (inactive)
- GI50 (SK-MEL-5): 30.5 µM (inactive)
- GI50 (SR): > 100 µM (inactive)
- GI50 (HL-60): 86.9 µM (inactive)
- GI50 (MOLT-4): 26.1 µM (inactive)
- GI50 (SF-295): 44.1 µM (inactive)
- GI50 (HOP-92): 27.2 µM (inactive)
- GI50 (NCI-H23): 21.8 µM (inactive)
- GI50 (DU-145): 46.5 µM (inactive)
- GI50 (CAKI-1): 14.4 µM (inactive)
- GI50 (OVCAR-8): 32.4 µM (inactive)
- GI50 (SW-620): 28.1 µM (inactive)
- GI50 (MDA-N): 34 µM (inactive)
- GI50 (EKVX): 24.2 µM (inactive)
- GI50 (RXF 393): 9.08 µM (inactive)
- GI50 (ACHN): 25.9 µM (inactive)
- GI50 (HT-29): 19.6 µM (inactive)
- GI50 (KM12): 28.1 µM (inactive)
- GI50 (A549): 22.9 µM (inactive)

SMILES: Nc1ncnc2c1ncn2[C@@H]1C[C@H](NO)[C@@H](O)[C@H]1O
- GI50 (SF-268): > 100 µM (inactive)
- GI50 (RPMI-8226): 10.8 µM (inactive)
- GI50 (SN12C): > 100 µM (inactive)
- GI50 (OVCAR-5): > 100 µM (inactive)
- GI50 (SNB-75): > 100 µM (inactive)
- GI50 (HOP-62): > 100 µM (inactive)
- GI50 (IGROV-1): > 100 µM (inactive)
- GI50 (K562): 28.1 µM (inactive)
- GI50 (M14): > 100 µM (inactive)
- GI50 (786-0): > 100 µM (inactive)
- GI50 (NCI-H226): > 100 µM (inactive)
- GI50 (NCI-H522): > 100 µM (inactive)
- GI50 (CCRF-CEM): 22.3 µM (inactive)
- GI50 (SF-539): 33.5 µM (inactive)
- GI50 (OVCAR-4): > 100 µM (inactive)
- GI50 (SK-MEL-2): > 100 µM (inactive)
- GI50 (NCI/ADR-RES): 68.5 µM (inactive)
- GI50 (SK-MEL-28): > 100 µM (inactive)
- GI50 (MDA-MB-435): > 100 µM (inactive)
- GI50 (HCT-15): 16.4 µM
- GI50 (MDA-MB-231): > 100 µM (inactive)
- GI50 (U-251): > 100 µM (inactive)
- GI50 (UACC-257): > 100 µM (inactive)
- GI50 (PC-3): > 100 µM (inactive)
- GI50 (MCF7): 49.3 µM (inactive)
- GI50 (Hs-578T): > 100 µM (inactive)
- GI50 (HCC 2998): > 100 µM (inactive)
- GI50 (UO-31): 7.33 µM (inactive)
- GI50 (HCT-116): 4.88 µM (inactive)
- GI50 (SK-OV-3): > 100 µM (inactive)
- GI50 (Malme-3M): > 100 µM (inactive)
- GI50 (UACC-62): > 100 µM (inactive)
- GI50 (TK-10): > 100 µM (inactive)
- GI50 (T47D): > 100 µM (inactive)
- GI50 (LOX IMVI): 13.1 µM (inactive)
- GI50 (OVCAR-3): > 100 µM (inactive)
- GI50 (SNB-19): > 100 µM (inactive)
- GI50 (COLO 205): > 100 µM (inactive)
- GI50 (BT-549): > 100 µM (inactive)
- GI50 (SK-MEL-5): > 100 µM (inactive)
- GI50 (SR): 3.55 µM (inactive)
- GI50 (MOLT-4): 83.4 µM (inactive)
- GI50 (SF-295): > 100 µM (inactive)
- GI50 (HOP-92): > 100 µM (inactive)
- GI50 (NCI-H23): > 100 µM (inactive)
- GI50 (DU-145): > 100 µM (inactive)
- GI50 (OVCAR-8): > 100 µM (inactive)
- GI50 (SW-620): 26.9 µM (inactive)
- GI50 (MDA-N): > 100 µM (inactive)
- GI50 (A498): > 100 µM (inactive)
- GI50 (EKVX): > 100 µM (inactive)
- GI50 (NCI-H460): > 100 µM (inactive)
- GI50 (RXF 393): > 100 µM (inactive)
- GI50 (ACHN): > 100 µM (inactive)
- GI50 (KM12): 9.25 µM (inactive)
- GI50 (A549): > 100 µM (inactive)

SMILES: CCOC(=O)c1sc(N/N=C2\NC(=O)/C(=C/c3ccc([N+](=O)[O-])cc3)S2)nc1C
- GI50 (SF-268): 27.5 µM (inactive)
- GI50 (SN12C): 30.4 µM (inactive)
- GI50 (OVCAR-5): 22.6 µM (inactive)
- GI50 (SNB-75): 25.8 µM (inactive)
- GI50 (HOP-62): 17.2 µM (inactive)
- GI50 (IGROV-1): 14 µM (inactive)
- GI50 (M14): 28.8 µM (inactive)
- GI50 (786-0): 16.7 µM (inactive)
- GI50 (NCI-H226): 18.7 µM (inactive)
- GI50 (NCI-H522): 17.7 µM (inactive)
- GI50 (CCRF-CEM): 15.1 µM (inactive)
- GI50 (SF-539): 18.7 µM (inactive)
- GI50 (OVCAR-4): 26.1 µM (inactive)
- GI50 (SK-MEL-2): 24.8 µM (inactive)
- GI50 (NCI/ADR-RES): 23.9 µM (inactive)
- GI50 (SK-MEL-28): 32.1 µM (inactive)
- GI50 (MDA-MB-435): 23.8 µM (inactive)
- GI50 (HCT-15): 19.7 µM
- GI50 (MDA-MB-231): 19.5 µM (inactive)
- GI50 (U-251): 26.1 µM (inactive)
- GI50 (UACC-257): 15.6 µM (inactive)
- GI50 (PC-3): 25.6 µM (inactive)
- GI50 (MCF7): 22.3 µM (inactive)
- GI50 (Hs-578T): 33.9 µM (inactive)
- GI50 (HCC 2998): 27.4 µM (inactive)
- GI50 (UO-31): 16.2 µM (inactive)
- GI50 (HCT-116): 16.8 µM (inactive)
- GI50 (SK-OV-3): 31.4 µM (inactive)
- GI50 (UACC-62): 22.2 µM (inactive)
- GI50 (TK-10): 35.3 µM (inactive)
- GI50 (T47D): 15.1 µM (inactive)
- GI50 (LOX IMVI): 19.8 µM (inactive)
- GI50 (OVCAR-3): 14.5 µM (inactive)
- GI50 (SNB-19): 32.6 µM (inactive)
- GI50 (COLO 205): 25.1 µM (inactive)
- GI50 (BT-549): 24 µM (inactive)
- GI50 (SK-MEL-5): 16.8 µM (inactive)
- GI50 (SR): 6.65 µM (inactive)
- GI50 (HL-60): 22.8 µM (inactive)
- GI50 (MOLT-4): 10.3 µM (inactive)
- GI50 (SF-295): 20.4 µM (inactive)
- GI50 (HOP-92): 16.9 µM (inactive)
- GI50 (NCI-H23): 24.4 µM (inactive)
- GI50 (DU-145): 16.8 µM (inactive)
- GI50 (CAKI-1): 22.1 µM (inactive)
- GI50 (OVCAR-8): 22.4 µM (inactive)
- GI50 (SW-620): 31.8 µM (inactive)
- GI50 (MDA-N): 25.9 µM (inactive)
- GI50 (A498): 26.1 µM (inactive)
- GI50 (EKVX): 15.7 µM (inactive)
- GI50 (NCI-H460): 21.5 µM (inactive)
- GI50 (RXF 393): 26.8 µM (inactive)
- GI50 (ACHN): 21.8 µM (inactive)
- GI50 (HT-29): 25.2 µM (inactive)
- GI50 (KM12): 15.5 µM (inactive)
- GI50 (A549): 28.3 µM (inactive)
